Source: patent US5624923A, “Tricyclic diazepine vasopressin antagonists and oxytocin antagonists” (priority 1995, dated 1997)

Key:
Vasopressin V2 = Vasopressin V2 Antagonist Activity in Conscious Hydrated Rats; type: in vivo, rat; details: 10 mg/kg orally, AVP 0.4 μg/kg i.p.
In short: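 Four-hour urine output, osmolality and electrolytes (Na+, K+, Cl−) recorded in water-loaded rats (30 mL/kg deionized water orally) given AVP i.p. at 0.4 μg/kg. Test compounds were given orally at 0.1–100 mg/kg 1 h before AVP; 2–4 rats per compound.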

[1] = molecular target: T1, Human V2 Vasopressin Receptor (Homo sapiens, UniProt P30518); assay: Binding to Membranes of Mouse Fibroblast Cell Line (LV-2) Transfected with the cDNA Expressing the Human V2 Vasopressin Receptor; details: human V2; for IC50: LV-2 cell membranes, read-out: V2 IC50 (**)
T1 construct: expressed in transfected cells; host or cells: mouse fibroblast cell line LV-2
T1 sequence (P30518 whole entry): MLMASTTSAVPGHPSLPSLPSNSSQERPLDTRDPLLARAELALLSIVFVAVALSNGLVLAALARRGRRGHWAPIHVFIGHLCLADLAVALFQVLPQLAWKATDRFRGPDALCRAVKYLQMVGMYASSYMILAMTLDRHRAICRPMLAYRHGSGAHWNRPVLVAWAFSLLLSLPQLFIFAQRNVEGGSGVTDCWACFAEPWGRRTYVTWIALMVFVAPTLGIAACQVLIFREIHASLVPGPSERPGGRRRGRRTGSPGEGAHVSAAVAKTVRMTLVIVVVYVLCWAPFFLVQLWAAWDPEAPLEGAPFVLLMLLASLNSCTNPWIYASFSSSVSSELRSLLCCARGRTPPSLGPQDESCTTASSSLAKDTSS
Experimental: Binding to Membranes of Mouse Fibroblast Cell Line (LV-2) Transfected with the cDNA Expressing the Human V2 Vasopressin Receptor
Flasks of 175 ml capacity, containing attached cells grown to confluence, are cleared of culture medium by aspiration. The flasks containing the attached cells are rinsed with 2×5 ml of phosphate buffered saline (PBS) and the liquid aspirated off each time. Finally, 5 ml of an enzyme free dissociation Hank's based solution (Specialty Media, Inc., Lafayette, N.J.) is added and the flasks are left undisturbed for 2 min. The content of all flasks is. poured into a centrifuge tube and the cells pelleted at 300× g for 15 min. The Hank's based solution is aspirated off and the cells homogenized with a polytron at setting #6 for 10 sec in 10.0 mM Tris.HCl buffer, pH 7.4 containing 0.25M sucrose and 1.0 mM EDTA. The homogenate is centrifuged at 1500× g for 10 min to remove ghost membranes. The supernatant fluid is centrifuged at 100,000× g for 60 min. to pellet the receptor protein. Upon completion, the pellet is resuspended in a small volume of 50.0 mM Tris. HCl buffer, pH 7.4. The protein content is determined by the Lowry method and the receptor membranes are suspended in 50.0 mM Tris.HCl buffer containing 0.1 mM phenylmethylsulfonylfluoride (PMSF) and 0.2% bovine serum albumin (BSA) to give 2.5 mg receptor protein per ml of suspension.
Arginine^8, vasopressin (S.A. 75.0 Ci/mmole) at 0.8 nM and the reaction initiated by the addition of 80.0 μl of tissue membranes (200.0 μg tissue protein). The plates are left undisturbed on the bench top for 120 min to reach equilibrium. Non specific binding is assessed in the presence of 1.0 μM of unlabeled ligand, added in 20 μl volume. For test compounds, these are solubilized in 50% dimethylsulfoxide (DMSO) and added in 20.0 μl volume to a final incubation volume of 200 μl. Upon completion of binding, the content of each well is filtered off, using a Brandel® cell Harvester (Gaithersburg, Md.). The radioactivity trapped on the filter disk by the ligand-receptor complex is assessed by liquid scintillation counting in a Packard LS Counter, with an efficiency of 65% for tritium. The data are analyzed for IC50 values by the LUNDON-2 program for competition (LUNDON SOFTWARE, Ohio).

[2] = molecular target: T2, V1 Receptor Subtype in Human Platelet (Homo sapiens, UniProt P37288); assay: Binding to Vasopressin V1 receptor subtype in Human Platelet Membranes; details: for IC50: human platelet membranes; for inhibition at 1 µM: 1.5 h, human platelet
T2 construct: tissue Hudson Valley Blood Services, Westchester Medical Center, Valhalla, N.Y; host or cells: human platelets (frozen platelet rich plasma)
T2 sequence (P37288 whole entry): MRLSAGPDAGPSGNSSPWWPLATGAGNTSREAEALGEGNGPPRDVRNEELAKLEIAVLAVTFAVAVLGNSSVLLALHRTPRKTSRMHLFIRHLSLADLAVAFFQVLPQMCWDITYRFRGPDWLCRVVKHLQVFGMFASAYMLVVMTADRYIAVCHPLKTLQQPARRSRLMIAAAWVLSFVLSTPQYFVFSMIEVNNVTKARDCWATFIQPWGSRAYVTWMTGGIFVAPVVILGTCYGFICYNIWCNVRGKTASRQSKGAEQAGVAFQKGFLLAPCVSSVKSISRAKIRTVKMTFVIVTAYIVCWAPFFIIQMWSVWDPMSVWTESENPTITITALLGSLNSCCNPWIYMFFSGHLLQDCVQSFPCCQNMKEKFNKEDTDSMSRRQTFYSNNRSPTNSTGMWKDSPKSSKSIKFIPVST
Experimental: Radioligand Binding Experiments with Human Platelet Membranes (a) Platelet Membrane Preparation: Frozen platelet rich plasma (PRP), (Platelet Source: Hudson Valley Blood Services, Westchester Medical Center, Valhalla, N.Y.) are thawed to room temperature. The tubes containing the PRP are centrifuged at 16,000×g for 10 min. at 4° C. and the supernatant fluid discarded. […] The suspension is recentrifuged at 16,000× g for 10 min. This washing step is repeated one more time. The wash discarded and the lysed pellets homogenized in low ionic strength buffer of Tris.HCl, 5.0 mM, pH 7.5 containing 5.0 mM EDTA. The homogenate is centrifuged at 39,000× g for 10 min. The resulting pellet is resuspended in Tris. […] The final pellet is resuspended in 50.0 mM Tris. HCl buffer pH 7.4 containing 120 mM NaCl and 5.0 mM KCl to give 1.0-2.0 mg protein per ml of suspension. […] Platelet Membranes […] Then add 20 μl of [^3 H]Ligand (Manning or […] Vasopressin), to give final concentrations ranging from 0.01 to 10.0 nM. Initiate the binding by adding 80.0 μl of platelet suspension (approx. 100 μg protein). Mix all reagents by pipetting the mixture up and down a few times. Non specific binding is measured in the presence of 1.0 μM of unlabeled ligand (Manning or […] Vasopressin). Let the mixture stand undisturbed at room temperature for ninety (90) min. Upon this time, rapidly filter off the incubate under vacuum suction over GF/B filters, using a Brandel Harvester. Determine the radioactivity caught on the filter disks by the addition of liquid scintillant and counting in a liquid scintillator.

Row | SMILES | IC50 [1] [nM] | IC50 [2] [nM] | further results
1 | Cc1ccc(F)cc1C(=O)Nc1ccc(C(=O)N2Cc3ccnn3Cc3ccccc32)c(Cl)c1 [Example 518, N-[4-(4H-Pyrazolo[5,1-c][1,4]benzodiazepin-5(10H)-ylcarbonyl)-3-chlorophenyl]-5-fluoro-2-methylbenzamide] | 1.7 | 220 | Osmolality (Vasopressin V2): 363 mOsm/kg; Urine Volume (Vasopressin V2): 17.5 ml/4 hrs
2 | O=C(Nc1ccc(C(=O)N2Cc3cccn3Cc3ccccc32)c(Cl)c1)c1ccccc1F [Example 523, N-[4-(5H-pyrrolo[2,1-c][1,4]benzodiazepin-10(11H)-ylcarbonyl)-3-chlorophenyl]-2-fluorobenzamide] | 2.8 | 110 | Osmolality (Vasopressin V2): 1218 mOsm/kg; Urine Volume (Vasopressin V2): 5 ml/4 hrs
3 | CSc1ccc(Cl)c(C(=O)Nc2ccc(C(=O)N3Cc4cccn4Cc4ccccc43)c(Cl)c2)c1 [Example 700, N-[4-(5H-pyrrolo[2,1-c][1,4]benzodiazepin-10(11H)-ylcarbonyl)-3-chloro-phenyl]-2-chloro-5-(methylthio)benzamide] | – | – | inhibition at 10 µM ([1]; 10 μM): 100%; inhibition at 1 µM [2]: 77%
4 | COc1cc(NC(=O)c2ccccc2C)c(Cl)cc1C(=O)N1Cc2cccn2Cc2ccccc21 [Example 703, N-[4-(5H-pyrrolo[2,1-c][1,4]benzodiazepin-10(11H)-ylcarbonyl)-6-chloro-3-methoxyphenyl]-2-methylbenzamide] | – | – | inhibition at 1 µM [1]: 87%; inhibition at 1 µM [2]: 35%
5 | CCCCC(=O)Nc1ccc(C(=O)N2Cc3cccn3Cc3ccccc32)cc1 [Example 715] | 73 | 7.8 | –
6 | CC(C)COC(=O)Nc1ccc(C(=O)N2Cc3cccn3Cc3ccccc32)cc1 [Example 714] | 41 | 23 | –
7 | O=C(Nc1ccc(C(=O)N2Cc3cccn3Cc3ccccc32)cc1)c1ccc(F)cc1Cl [Example 692, N-[4-(5H-pyrrolo[2,1-c][1,4]benzodiazepin-10(11H)-ylcarbonyl)phenyl]-2-chloro-4-fluorobenzamide] | 4 | 7 | –
8 | O=C(Nc1ccc(C(=O)N2Cc3cccn3Cc3ccccc32)cc1)c1cccc2ccccc12 [Example 690, N-[4-(5H-pyrrolo[2,1-c][1,4]benzodiazepin-10(11H)-ylcarbonyl)phenyl]-1-naphthylcarboxamide] | 22 | 220 | –
9 | COc1ccc(C(=O)Nc2ccc(C(=O)N3Cc4cccn4Cc4ccccc43)c(Cl)c2)c(Cl)c1OC [Example 702, N-[4-(5H-pyrrolo[2,1-c][1,4]benzodiazepin-10(11H)-ylcarbonyl)-3-chloro-phenyl]-2-chloro-3,4-dimethoxybenzamide] | – | – | inhibition at 1 µM [1]: 85%; inhibition at 1 µM [2]: 9%

The next lines start with results.

Row | IC50 [1] [nM] | IC50 [2] [nM] | SMILES | further results
10 | 3 | 620 | Cc1ccccc1CC(=O)Nc1ccc(C(=O)N2Cc3cccn3Cc3ccccc32)c(Cl)c1 [Example 697, N-[4-(5H-pyrrolo[2,1-c][1,4]benzodiazepin-10(11H)-ylcarbonyl)-3-chloro-phenyl]-2-methylbenzeneacetamide] | –
11 | 65 | 12400 | O=C(Nc1ccc(C(=O)N2Cc3cccn3Cc3ccccc32)c(Cl)c1)c1ccc(C(F)(F)F)cc1F [Example 696, N-[4-(5H-pyrrolo[2,1-c][1,4]benzodiazepin-10(11H)-ylcarbonyl)-3-chloro-phenyl]-2-fluoro-4-(trifluoromethyl)benzamide] | –
12 | 35 | 71 | Cc1ccccc1C(=O)Nc1ccc(C(=O)N2Cc3ccc(CN(C)C)n3Cc3ccccc32)c(Cl)c1 [Example 669, N-[4-[[3-[(dimethylamino)methyl]-5H-pyrrolo[2,1-c][1,4]benzodiazepin-10(11H)-yl]carbonyl]-3-chlorophenyl]-2-methylbenzamide] | –
13 | 4 | 500 | Cc1c(F)cccc1C(=O)Nc1ccc(C(=O)N2CCc3cccn3-c3ccccc32)c(Cl)c1 [Example 611, N-[4-[(6,7-Dihydro-5H-pyrrolo[1,2-a]-[1,5]benzodiazepin-5-yl)carbonyl]-3-chlorophenyl]-3-fluoro-2-methyl-benzamide] | –
